Measurements reported in patent US20230076792A1, “SEQUENTIAL TARGETING IN CROSSLINKING NANO-THERANOSTICS FOR TREATING BRAIN TUMORS” (The Regents of the University of California, priority 2019, published 2023).
Blank lines part the entries; values can stand above or below the compound they belong to.

Key:
[1] = In vitro drug release profile (dialysis, pH 7.4 then pH 6.5); type: physicochemical; conditions: pH 7.4 PBS
Protocol: Drug release profile. STICK-NP@Cy@Gd was prepared to evaluate the in vitro release profile using dialysis cassettes (Pierce Chemical Inc.) with a 3 kDa MWCO. To make an ideal sink condition, 10 g charcoal was added in the release medium. The cassettes were dialyzed against PBS (pH7.4) at room temperature. The PBS at pH 7.4 was replaced with fresh PBS at pH 6.5 at 4 h. The concentration of CY7.5 and Gd-DTPA remaining in the dialysis cassette at various time points was measured by UV-vis spectroscopy and ICP-MS.

DIPG (PDX) cells = test: Anti-cancer efficacy in orthotopic PDX DIPG mouse model; type: in vivo, SCID mouse
Protocol: Anti-cancer efficacy study in orthotopic brain tumor models. […] After confirming the establishment of brain tumors, mice were randomly assigned into different groups. Tumor size was monitored using advanced T1-weight imaging (TR/TE=300 ms/15 ms). For imaging study, mice were injected with 250 mg/kg Gd-DTPA. Tumor size of DIPG model was calculated from the aggregation of tumor area in different MRI slices, 1 mm thick. Tumor size of GBM model was calculated as the followed equation: […]
where W is the width of the tumor and the L is the length of the tumor (W<L). One mouse per group was sacrificed on day 12 after MRI imaging, and organs and brain with tumors were harvested for histopathology evaluation. Animals were continuously monitored their appearance, behavior, and body weight. Once the body weight loss>20%, animals were considered as reaching the humane endpoint.

U87-MG cells = test: Cellular uptake assay in brain tumor cells; type: cell-based, human; conditions: pH 6.5 versus pH 7.4, Cy7.5 0.1 mg/mL
Protocol: To study the cellular uptake of STICK-NP@Cy, the bEnd.3 cells or U87-MG cells were seeded on 8-well chamber slides (10000 cells/well) and treated with STICK-NP@Cy and other controls (0.1 mg/mL Cy7.5) for 1 hour and washed by PBS three times. Cells were then fixed and stained with DAPI. Cell imaging was acquired using a Keyence fluorescence microscope. For quantitative study, bEnd.3 cells or U87-MG cells (10000 cells/well) were seeded in 96 well plate for overnight and then treated the cells with STICK-NP@Cy and other controls (0.1 mg/mL Cy7.5). Cells were harvested at 0 h, 1 h, 2 h, 3 h, and 4 h and washed with PBS. Total cells were lysed with 100 μL DMSO and the fluorescence intensity was measured by fluorescence spectrophotometer (RF-6000, Shimazu, Japan). To inhibit GLUT1 activity, bEnd.3 cells were pretreated with 40 μM of WZB-117 for 24 h before incubation with STICK-NP@Cy. For the tumor uptake study, U87-MG cells were pretreated with 40 μM of AZT for 24 h to alter the expression of surface sialic acid. To block the interaction, U87-MG cells were pre-incubated with excess free CBA (80 μM) for 24 h to compete for the binding sites with STICK-NP@Cy (pH 6.5) through the CBA targeting moiety in the secondary smaller micelles.

[2] = Pharmacokinetic study in jugular vein catheterized rats; type: in vivo; conditions: Cy7.5 10 mg/kg, serum
Protocol: FIGS. 2A and 2B show cumulative release profile for both hydrophilic (Gd-DTPA) (FIG. 2A) and hydrophobic (Cy7.5) payloads (FIG. 2B) from STICK-NPs and NM in the presence of different pH. A mixture of NM and free Gd was used in (FIG. 2A), as Gd could not be loaded into NM. Drug release study was performed initially at pH 7.4 PBS (grey areas) and was then subjected to pH 6.5 after 4 h (pink areas). Samples were collected at different time points and were measured by inductively coupled plasma mass spectrometry (ICP-MS) for Gd-DTPA level and fluorescence spectrometer for the concentration of Cy7.5. (n=3). […] (n=3) FIG. 2E show the intensity-weighted distribution changes of STICK-NPs in the presence of different concentrations of glucose (mmol/L). Of note, normal human serum glucose level ranges from 3.9 to 5.5 mmol/L. FIG. 2F show pharmacokinetic profiles of free Cy7.5, STICK-NP@Cy, and NM@Cy (Cy7.5, 10 mg/kg) in jugular vein catheterized rats (n=3). Serum was collected at different time points, and drug concentrations were measured based on fluorescence signals. The error bars were the standard deviation (SD).

Release of Gd-DTPA [1]: released immediately
Compound: CNC[C@H](O)[C@@H](O)[C@H](O)[C@H](O)CO.CNC[C@H](O)[C@@H](O)[C@H](O)[C@H](O)CO.O=C([O-])CN(CCN(CC(=O)[O-])CC(=O)O)CCN(CC(=O)[O-])CC(=O)O.[Gd+3] [free Gd-DTPA, gadopentetic acid]

Compound: CC[C@]1(O)C[C@H]2CN(CCc3c([nH]c4ccccc34)[C@@](C(=O)OC)(c3cc4c(cc3OC)N(C=O)[C@H]3[C@@](O)(C(=O)OC)[C@H](OC(C)=O)[C@]5(CC)C=CCN6CC[C@]43[C@@H]65)C2)C1 [free VCR, vincristine]
Effect on tumor growth (DIPG (PDX) cells; MRI, compared to PBS control): minimal inhibition effects
Extension of survival compared to PBS control (DIPG (PDX) cells; mouse, in vivo): failed to extend the survival
Survival of mice beyond day 12 (DIPG (PDX) cells; mouse, in vivo): died after day 12

AUC(0-∞) [2]: 51400 ± 13400 ng·h/mL
Cmax [2]: 4190 ± 400 ng/mL
Vz [2]: 2.46 ± 0.51 L/kg
t1/2z [2]: 16.92 ± 0.78 h
Compound: cyanine 7.5 [Free Cy]
U87-MG cell uptake after pretreatment with pH 6.5 (U87-MG cells): no significant enhancement
